# Measured values reported in patent US8952150B2, “Prostaglandin transporter inhibitors and uses thereof” (Albert Einstein College of Medicine of Yeshiva University, priority 2009, dated 2015).
# Target: rat PGT (Rattus norvegicus (Rat), UniProt Q00910)
# Assay: [3H]PGE2 uptake inhibition in MDCK cells stably transfected with rat PGT (percent inhibition and IC50)
# Assay type: cell-based
# Conditions: for Inh (% of Ctl) 0.5 μM: 0.5 μM compound; for Inh (% of Ctl) 0.5 μM / Inh (% of Ctl) 2.5 μM / Inh (% of Ctl) 5 μM / Inh (% of Ctl) 1 μM / Inh (% of Ctl) 10 μM / Inh (% of Ctl) 0.1 μM: inhibition of [3H]PGE2 uptake; for Inh (% of Ctl) 2.5 μM: 2.5 μM compound; for Inh (% of Ctl) 5 μM: 5 μM compound; for Inh (% of Ctl) 1 μM: 1 μM compound; for Inh (% of Ctl) 10 μM: 10 μM compound; for IC50: [3H]PGE2 uptake, MDCK cells stably transfected with rat PGT; for Inh (% of Ctl) 0.1 μM: 0.1 μM compound
# Experimental: MDCK cells stably transfected with rat PGT (Endo et al., 2002) were seeded at 15-20% confluence on 24-well plates. The day on which the cells were seeded was considered day 1. PGE2 uptake experiments were conducted on day 4. All of the PGE2 uptake experiments were conducted at room temperature. On day 4, cells were washed twice with Waymouth buffer (135 mM NaCl, 13 mM H-Hepes, 13 mM Na-Hepes, 2.5 mM CaCl2, 1.2 mM MgCl2, 0.8 mM MgSO4, 5 mM KCl, and 28 mM D-glucose). Then 200 μL of Waymouth buffer containing [^3H]PGE2 (purchased from Perkin Elmer) was added to each well. At the designed time, the uptake of [^3H]PGE2 was stopped by aspiration of uptake buffer; this was followed by immediate washing twice with 500 μL of chilled Waymouth buffer. Cells were then lysed with 100 μL lysis buffer containing 0.25% SDS and 0.05 N NaOH. 1.5 mL of scintillation solution was added to each well, and intracellular [^3H]PGE2 was counted by MicroBeta Counter.
# For preliminary testing of the compounds, 20 μL of Waymouth buffer containing the compound was added to each well; this was immediately followed by the addition of 180 μL of Waymouth buffer containing [^3H]PGE2. In each well, the total volume of uptake medium was 200 μL. Organic compounds were first dissolved in EtOH and then diluted in Waymouth buffer. The percent inhibition of [^3H]PGE2 uptake by compounds was calculated as [(uptakevehicle−uptakeinhibitor)÷(uptakevehicle)]×100.
# IC50 was calculated by fitting an equation of y=m1−m1*(m0/(m2+m0)).
smiles,measurement,value
O=C(NCCOCCOCCNc1nc(Nc2ccc(O)cc2)nc(Nc2ccc(C(=O)NCc3ccccc3)c(C(F)(F)F)c2)n1)c1ccccc1 [compound 82],Inh (% of Ctl) 0.5 μM,2.1 % of Ctl
same,Inh (% of Ctl) 2.5 μM,5.0 % of Ctl
same,Inh (% of Ctl) 5 μM,47.6 % of Ctl
O=C(NCCOCCOCCNc1nc(Nc2ccc(C(=O)NCc3ccccc3)cc2)nc(Nc2ccc3[nH]ncc3c2)n1)c1ccccc1 [compound 64],Inh (% of Ctl) 0.5 μM,15.5 % of Ctl
same,Inh (% of Ctl) 1 μM,71.6 % of Ctl
same,Inh (% of Ctl) 5 μM,77.2 % of Ctl
same,Inh (% of Ctl) 10 μM,90.2 % of Ctl
same,IC50,115 nM
O=C(NCCOCCOCCNc1nc(Nc2ccc(O)cc2)nc(Nc2ccc(C(=O)NCc3cccc(C(F)(F)F)c3)cc2)n1)c1ccccc1 [compound 101],Inh (% of Ctl) 0.1 μM,47.4 % of Ctl
same,Inh (% of Ctl) 0.5 μM,54.0 % of Ctl
same,Inh (% of Ctl) 2.5 μM,71.0 % of Ctl
same,Inh (% of Ctl) 5 μM,91.4 % of Ctl
O=C(NCCOCCOCCNc1nc(Nc2ccc(C(=O)NCc3ccc(F)cc3)cc2)nc(Nc2ccc(O)c(F)c2)n1)c1ccccc1 [compound 143],Inh (% of Ctl) 0.1 μM,33.7 % of Ctl
same,Inh (% of Ctl) 0.5 μM,57.8 % of Ctl
same,Inh (% of Ctl) 1 μM,69.5 % of Ctl
same,IC50,16.5 nM
CC(C)(NC(=O)c1ccc(Nc2nc(NCCOCCOCCNC(=O)c3ccccc3)nc(Nc3ccc(O)cc3)n2)cc1)c1ccccc1 [compound 66],Inh (% of Ctl) 0.5 μM,10.9 % of Ctl
same,Inh (% of Ctl) 5 μM,64.4 % of Ctl
O=C(CCCCCCNc1nc(Nc2ccccc2)nc(Nc2ccc(O)cc2)n1)Nc1ccccc1 [compound 96],Inh (% of Ctl) 1 μM,8.6 % of Ctl
same,Inh (% of Ctl) 5 μM,23.9 % of Ctl
same,Inh (% of Ctl) 10 μM,51.9 % of Ctl
O=C(NCCOCCOCCNc1nc(Nc2ccc(O)cc2)nc(Nc2ccc(C(=O)NCc3ccccc3-c3ccccc3)cc2)n1)c1ccccc1 [compound 86],Inh (% of Ctl) 0.1 μM,50.0 % of Ctl
same,Inh (% of Ctl) 0.5 μM,70.7 % of Ctl
same,Inh (% of Ctl) 2.5 μM,81.4 % of Ctl
same,Inh (% of Ctl) 5 μM,86.4 % of Ctl
same,IC50,870 nM
O=C(NCCO)c1ccc(Nc2nc(NCCOCCOCCNC(=O)c3ccccc3)nc(Nc3ccc(O)cc3)n2)cc1 [compound 21],Inh (% of Ctl) 0.5 μM,15.7 % of Ctl
same,Inh (% of Ctl) 5 μM,68.2 % of Ctl
O=C(NCc1ccc(F)cc1)c1ccc(Nc2nc(Nc3ccc(O)cc3)nc(Nc3ccc(CNCc4ccccc4)cc3)n2)cc1 [compound 149],Inh (% of Ctl) 0.1 μM,3.8 % of Ctl
same,Inh (% of Ctl) 0.5 μM,9.1 % of Ctl
same,Inh (% of Ctl) 1 μM,17.6 % of Ctl
O=C(NCCOCCNc1nc(Nc2ccc(O)cc2)nc(Nc2ccc(C(=O)NCc3ccccc3)cc2)n1)Nc1ccccc1 [compound 139],Inh (% of Ctl) 0.1 μM,16.3 % of Ctl
same,Inh (% of Ctl) 0.5 μM,30.7 % of Ctl
same,Inh (% of Ctl) 1 μM,39.0 % of Ctl
COc1ccc(CNC(=O)c2ccc(Nc3nc(NCCOCCOCCNC(=O)c4ccccc4)nc(Nc4ccc(O)cc4)n3)cc2)cc1 [compound 92],Inh (% of Ctl) 0.5 μM,33.7 % of Ctl
same,Inh (% of Ctl) 2.5 μM,71.3 % of Ctl
same,Inh (% of Ctl) 5 μM,80.6 % of Ctl
O=C(NCCOCCOCCNc1nc(Nc2ccc(O)cc2)nc(Nc2ccc(C(=O)NCc3cc(Cl)cc(Cl)c3)cc2)n1)c1ccccc1 [compound 108],Inh (% of Ctl) 0.1 μM,70.3 % of Ctl
same,Inh (% of Ctl) 0.5 μM,60.8 % of Ctl
same,Inh (% of Ctl) 2.5 μM,78.3 % of Ctl
same,Inh (% of Ctl) 5 μM,76.6 % of Ctl
O=C(NCCOCCOCCNc1nc(Nc2ccccc2)nc(Nc2ccc(O)cc2)n1)c1cccc(F)c1 [compound 34],Inh (% of Ctl) 1 μM,25.8 % of Ctl
same,Inh (% of Ctl) 10 μM,81 % of Ctl
CCCCCCNC(=O)c1ccc(Nc2nc(NCCOCCNC(=O)c3ccccc3)nc(Nc3ccc(O)cc3)n2)cc1 [compound 119],Inh (% of Ctl) 0.1 μM,57.2 % of Ctl
same,Inh (% of Ctl) 0.5 μM,81.4 % of Ctl
COC(=O)CCCCCCNc1nc(Nc2ccccc2)nc(Nc2ccc(O)cc2)n1 [compound 50],Inh (% of Ctl) 1 μM,9.3 % of Ctl
same,Inh (% of Ctl) 10 μM,15.1 % of Ctl
O=C(NCCOCCOCCNc1nc(Nc2ccc(O)cc2)nc(Nc2ccc(C(=O)NCc3cccnc3)cc2)n1)c1ccccc1 [compound 67],Inh (% of Ctl) 0.5 μM,13.4 % of Ctl
same,Inh (% of Ctl) 5 μM,76.1 % of Ctl
O=C(NCCOCCOCCNc1nc(Nc2ccc(O)cc2)nc(Nc2cccc(C(=O)NCc3ccccc3)c2)n1)c1ccccc1 [compound 78],Inh (% of Ctl) 0.5 μM,15.5 % of Ctl
same,Inh (% of Ctl) 2.5 μM,24.5 % of Ctl
same,Inh (% of Ctl) 5 μM,83.2 % of Ctl
O=C(NCCOCCOCCNc1nc(Nc2ccc(O)cc2)nc(Nc2ccc(C(=O)NCc3ccc(Br)cc3)cc2)n1)c1ccccc1 [compound 109],Inh (% of Ctl) 0.1 μM,49.5 % of Ctl
same,Inh (% of Ctl) 0.5 μM,55.6 % of Ctl
same,Inh (% of Ctl) 2.5 μM,59.8 % of Ctl
same,Inh (% of Ctl) 5 μM,85.1 % of Ctl
O=C(NCCOCCOCCNc1nc(Nc2ccc(O)cc2)nc(Nc2ccc(C(=O)NCc3cc(F)cc(F)c3)cc2)n1)c1ccccc1 [compound 130],Inh (% of Ctl) 0.1 μM,41.6 % of Ctl
same,Inh (% of Ctl) 0.5 μM,73.2 % of Ctl
same,Inh (% of Ctl) 1 μM,81.7 % of Ctl
O=C(NCCOCCOCCNc1nc(Nc2ccc(O)cc2)nc(Nc2ccc(C(=O)NCc3ccccc3F)cc2)n1)c1ccccc1 [compound 110],Inh (% of Ctl) 0.1 μM,69.6 % of Ctl
same,Inh (% of Ctl) 0.5 μM,60.6 % of Ctl
same,Inh (% of Ctl) 2.5 μM,78.3 % of Ctl
same,Inh (% of Ctl) 5 μM,93.6 % of Ctl
same,IC50,31.3 nM
COc1ccc(Nc2nc(NCCOCCOCCNC(=O)c3ccccc3)nc(Nc3ccc(O)cc3)n2)cc1 [compound 23],Inh (% of Ctl) 0.5 μM,14.4 % of Ctl
same,Inh (% of Ctl) 5 μM,38.4 % of Ctl
O=C(NCCOCCOCCNc1nc(Nc2ccccc2)nc(Nc2ccc(O)cc2)n1)Nc1ccccc1 [compound 42],Inh (% of Ctl) 1 μM,22.8 % of Ctl
same,Inh (% of Ctl) 10 μM,57.6 % of Ctl
O=C(NCCOCCOCCNc1nc(Nc2ccc(O)cc2)nc(Nc2ccc(C(=O)NCc3cccc(Cl)c3)cc2)n1)c1ccccc1 [compound 87],Inh (% of Ctl) 0.1 μM,55.1 % of Ctl
same,Inh (% of Ctl) 0.5 μM,71.8 % of Ctl
same,Inh (% of Ctl) 2.5 μM,83.5 % of Ctl
same,Inh (% of Ctl) 5 μM,90.6 % of Ctl
same,IC50,710 nM
O=C(NCCOCCNc1nc(Nc2ccc(O)cc2)nc(Nc2ccc(C(=O)NCc3ccc(Cl)cc3)cc2)n1)c1ccccc1 [compound 98],Inh (% of Ctl) 0.5 μM,6.7 % of Ctl
same,Inh (% of Ctl) 2.5 μM,24.9 % of Ctl
same,Inh (% of Ctl) 5 μM,75.1 % of Ctl
CC(=O)NCCOCCOCCNc1nc(Nc2ccccc2)nc(Nc2ccc(O)cc2)n1 [compound 41],Inh (% of Ctl) 1 μM,0.3 % of Ctl
same,Inh (% of Ctl) 10 μM,6.6 % of Ctl
O=C(NCCOCCNc1nc(Nc2ccc(O)cc2)nc(Nc2ccc(C(=O)NCc3ccccc3)cc2)n1)c1ccncc1 [compound 135],Inh (% of Ctl) 0.1 μM,13.2 % of Ctl
same,Inh (% of Ctl) 0.5 μM,28.4 % of Ctl
same,Inh (% of Ctl) 1 μM,49.6 % of Ctl
O=C(NCCOCCNc1nc(Nc2ccc(O)cc2)nc(Nc2ccc(C(=O)NCc3ccccc3)cc2)n1)c1ccc(F)cc1 [compound 136],Inh (% of Ctl) 0.1 μM,33.3 % of Ctl
same,Inh (% of Ctl) 0.5 μM,64.1 % of Ctl
same,Inh (% of Ctl) 1 μM,77.9 % of Ctl
same,IC50,23.9 nM
O=C(NCCOCCOCCNc1nc(Nc2ccc(O)cc2)nc(Nc2ccc(O)cc2)n1)c1ccccc1 [compound 28],Inh (% of Ctl) 0.5 μM,2.4 % of Ctl
same,Inh (% of Ctl) 5 μM,56.5 % of Ctl
CC(=O)NCCOCCNc1nc(Nc2ccc(O)cc2)nc(Nc2ccc(C(=O)NCc3ccccc3)cc2)n1 [compound 140],Inh (% of Ctl) 0.1 μM,11.5 % of Ctl
same,Inh (% of Ctl) 0.5 μM,4.5 % of Ctl
same,Inh (% of Ctl) 1 μM,10.9 % of Ctl
COc1ccc(Nc2nc(NCCOCCOCCNC(=O)c3ccccc3)nc(Nc3ccccc3)n2)cc1 [compound 1],Inh (% of Ctl) 0.5 μM,9.6 % of Ctl
same,Inh (% of Ctl) 5 μM,8.5 % of Ctl
O=C(NCCOCCOCCNc1nc(Nc2ccccc2)nc(Nc2ccc(O)cc2)n1)c1ccc(-c2ccccc2)cc1 [compound 40],Inh (% of Ctl) 1 μM,16.3 % of Ctl
same,Inh (% of Ctl) 10 μM,46.9 % of Ctl
O=C(NCCOCCOCCNc1nc(Nc2ccc(O)cc2)nc(Nc2ccc(C(=O)OCc3ccccc3)cc2)n1)c1ccccc1 [compound 69],Inh (% of Ctl) 0.5 μM,24.9 % of Ctl
same,Inh (% of Ctl) 5 μM,83.2 % of Ctl
same,IC50,890 nM
Nc1ccc(Nc2nc(NCCOCCOCCNC(=O)c3ccccc3)nc(Nc3ccc(O)cc3)n2)cc1 [compound 25],Inh (% of Ctl) 0.5 μM,12.9 % of Ctl
same,Inh (% of Ctl) 5 μM,27.7 % of Ctl
O=C(NCCOCCOCCNc1nc(Nc2ccc(O)cc2)nc(Nc2ccc(C(=O)NCc3c(F)cccc3F)cc2)n1)c1ccccc1 [compound 128],Inh (% of Ctl) 0.1 μM,36.6 % of Ctl
same,Inh (% of Ctl) 0.5 μM,71.8 % of Ctl
same,Inh (% of Ctl) 1 μM,82.2 % of Ctl
COC(=O)c1ccc(Nc2nc(NCCOCCOCCNC(=O)c3ccccc3)nc(Nc3ccc(O)cc3)n2)cc1 [compound 17],Inh (% of Ctl) 0.5 μM,22.0 % of Ctl
same,Inh (% of Ctl) 5 μM,55.6 % of Ctl
same,IC50,6570 nM
O=C(NCCOCCOCCNc1nc(Nc2ccccc2)nc(Nc2ccc(O)cc2)n1)c1ccc(Br)cc1 [compound 31],Inh (% of Ctl) 1 μM,12.2 % of Ctl
same,Inh (% of Ctl) 10 μM,69.2 % of Ctl
